In article PMC4139342, “Pharmacokinetics-Pharmacodynamics Analysis of Bicyclic 4-Nitroimidazole Analogs in a Murine Model of Tuberculosis” (PLoS ONE, 2014):
≈ marks a conversion by molar mass, not a printed value. Where two headings read alike, the source gives them in different places.

How the values were obtained:
[1] = system: M. tuberculosis (Mtb) (H37Rv, ATCC 27294); assay: microbe, parasite or virus in culture; format: cell-based; conditions: Mycobacterium tuberculosis
[2] = Cytotoxicity against THP1 macrophage cell lines; format: cell-based; conditions: human
[3] = female, CD-1, mouse, in vivo, po, 25 mg/kg
in vivo [4] = conditions: female, CD-1, mouse, po, 25 mg/kg
in vivo [5] = conditions: female, CD-1, mouse, iv, 5 mg/kg; for clearance: i.v. CL
in vivo [6] = conditions: female, CD-1, mouse, po, 25 mg/kg; remark: listed apart in the source
physchem [7] = conditions: pH 6.8, aqueous buffer, thermodynamic from solid
physchem [8] = assay: physchem
[9] = In vivo lung PK after oral dosing; conditions: female, CD-1, mouse, 25 mg/kg
[10] = In vivo plasma PK after intravenous dosing; conditions: female, CD-1, mouse, plasma, iv, 5 mg/kg, T1/2 (i.v), mice, i.v. dosing at 5 mg/kg
[11] = In vivo plasma PK after oral dosing in CM-2 formulation; conditions: female, CD-1, mouse, plasma, po, 25 mg/kg

Row | SMILES | MIC99 [1] | CC50 [2] | PAMPA %FA | PAMPA Log Pe | Lung AUC24 [3] | Lung Cmax [3] | AUC (in vivo [4]) | Cmax (in vivo [4]) | Tmax (in vivo [4]) | bioavailability (in vivo [4]) | Vd (in vivo [5]) | clearance (in vivo [5]) | Tmax (in vivo [6]) | Kp (in vivo [6]; Lung to Plasma ratio AUC24) | Kp (in vivo [6]; Lung to Plasma ratio Cmax) | solubility (physchem [7]) | logP (physchem [8]) | half-life [9] | half-life [10] | half-life [11] | also measured
1 | CC[C@@H]1Oc2nc([N+](=O)[O-])cn2C[C@@H]1OCc1ccc(OC(F)(F)F)cc1 [NI-145] | 0.06 µg/mL (≈ 0.155 µM) | > 10 µg/mL | 99% | –3.85 cm/sec | 34.6 µg·h/g | 4.2 µg/g | 16200 ng·h/mL | 1800 ng/mL | 2 h | 68% | 1.7 L/kg | 17 mL/min/kg | 2 h | 2.1 | 2.3 | < 2 µg/mL | 3.85 | 4.1 h | 2 h | 4.2 h | –
2 | COc1ccc(C[C@H](N)C(=O)N[C@H]2[C@@H](O)[C@H](n3cnc4c(N(C)C)ncnc43)O[C@@H]2CO)cc1 [Puromycin, reference compound] | – | – | – | – | – | – | – | – | – | – | – | – | – | – | – | – | – | – | – | – | CC50 ([2]; THP1 macrophage cell lines, read-out: Cytotoxicity CC50): 1.4 µg/mL (≈ 2.97 µM)
3 | CC[C@@H]1Oc2nc([N+](=O)[O-])cn2C[C@@H]1NCc1ccc(OC(F)(F)F)c(F)c1 [NI-176] | 0.03 µg/mL (≈ 0.0742 µM) | > 10 µg/mL | 99% | –3.7 cm/sec | 30.3 µg·h/g | 4.8 µg/g | 13700 ng·h/mL | 2200 ng/mL | – | 86% | 1.8 L/kg | 22.2 mL/min/kg | – | 2.2 | 2.2 | 8 µg/mL (≈ 19.8 µM) | 3.5 | 4.3 h | 1 h | 4.3 h | –
4 | CC[C@@H]1Oc2nc([N+](=O)[O-])cn2C[C@@H]1NCc1ccc(OC(F)(F)F)cc1 [NI-269] | 0.03 µg/mL (≈ 0.0777 µM) | > 10 µg/mL | 99% | –3.7 cm/sec | 27.5 µg·h/g | 5.4 µg/g | 16000 ng·h/mL | 2800 ng/mL | 0.3 h | 88% | 2.6 L/kg | 19.7 mL/min/kg | 0.3 h | 1.7 | 1.9 | 12 µg/mL (≈ 31.1 µM) | 3.15 | 2.7 h | 2.1 h | 3.8 h | –
